Assay results: ChEMBL document CHEMBL1150948, “Tolyporphins J and K, two further porphinoid metabolites from the cyanobacterium Tolypothrix nodosa” (J Nat Prod, 1998)
The source made the active and inactive calls. No cut-off for these calls is given here.

Legend:
[1] = system: NCI/ADR-RES; assay: Reversal of P-glycoprotein-mediated multidrug resistance in human MCF7/ADR cells assessed as sensitization to actinomycin D after 48 hrs by SRB assay; format: cell-based
[2] = biological target: ATP-dependent translocase ABCB1 (Homo sapiens, UniProt P08183); assay: Inhibition of P-glycoprotein in human MCF7/ADR cells assessed as increase in [3H]vinblastine accumulation; format: cell-based; details: nci/adr-res
[3] = system: NCI/ADR-RES; assay: Cytotoxicity against human MCF7/ADR cells for 60 mins by trypan blue staining; format: functional, cell-based

ATP-dependent translocase ABCB1, sequence (P08183 whole entry): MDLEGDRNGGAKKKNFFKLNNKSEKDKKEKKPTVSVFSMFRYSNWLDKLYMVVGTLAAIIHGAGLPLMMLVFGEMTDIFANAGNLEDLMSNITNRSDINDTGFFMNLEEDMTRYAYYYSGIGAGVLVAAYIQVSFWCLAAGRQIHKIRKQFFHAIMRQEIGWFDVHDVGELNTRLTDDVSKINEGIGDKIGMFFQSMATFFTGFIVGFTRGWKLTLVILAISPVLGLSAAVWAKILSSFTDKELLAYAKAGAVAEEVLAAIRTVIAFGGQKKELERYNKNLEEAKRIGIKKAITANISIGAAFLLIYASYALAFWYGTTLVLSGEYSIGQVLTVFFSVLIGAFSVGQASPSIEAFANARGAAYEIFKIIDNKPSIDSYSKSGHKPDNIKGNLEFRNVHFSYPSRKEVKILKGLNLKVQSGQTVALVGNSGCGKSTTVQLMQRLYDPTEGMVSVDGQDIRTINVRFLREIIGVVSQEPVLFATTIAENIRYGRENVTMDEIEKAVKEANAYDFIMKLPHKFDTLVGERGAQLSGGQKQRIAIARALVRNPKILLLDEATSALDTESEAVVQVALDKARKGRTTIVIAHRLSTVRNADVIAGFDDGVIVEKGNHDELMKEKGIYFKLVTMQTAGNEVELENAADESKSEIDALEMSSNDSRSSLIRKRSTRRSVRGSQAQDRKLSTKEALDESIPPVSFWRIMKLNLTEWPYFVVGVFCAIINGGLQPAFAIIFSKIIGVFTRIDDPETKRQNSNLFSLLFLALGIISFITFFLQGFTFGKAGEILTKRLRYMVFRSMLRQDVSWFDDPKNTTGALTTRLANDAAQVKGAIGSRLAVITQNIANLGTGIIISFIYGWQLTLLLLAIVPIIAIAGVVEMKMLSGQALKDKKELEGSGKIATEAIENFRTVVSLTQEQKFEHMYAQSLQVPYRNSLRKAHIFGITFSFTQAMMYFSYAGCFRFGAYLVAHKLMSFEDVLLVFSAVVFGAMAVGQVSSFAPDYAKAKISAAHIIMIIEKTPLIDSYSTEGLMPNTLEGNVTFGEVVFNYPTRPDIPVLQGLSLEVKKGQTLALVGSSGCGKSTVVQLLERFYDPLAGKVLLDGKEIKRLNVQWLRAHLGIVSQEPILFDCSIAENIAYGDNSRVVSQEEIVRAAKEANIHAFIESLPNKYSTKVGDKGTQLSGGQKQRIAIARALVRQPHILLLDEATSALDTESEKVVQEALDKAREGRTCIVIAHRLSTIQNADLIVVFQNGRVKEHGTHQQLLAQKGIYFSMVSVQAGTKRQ

Activity [2] | Structure (SMILES) | Activity [1] | Activity [3]
Dose-dependent effect | CC(=O)O[C@@H]1C[C@@H](O)[C@@H](C)OC1[C@]1(C)C(=O)c2cc3cc(C)c(cc4nc(cc5[nH]c(cc1n2)cc5C)C(=O)[C@@]4(C)C1O[C@H](C)[C@H](O)C[C@H]1OC(C)=O)[nH]3 (stereo partly specified) [TOLYPORPHIN A] | Active | inactive
Dose-dependent effect | Cc1cc2cc3nc(cc4cc(C)c(cc5nc(cc1[nH]2)C(=O)C5(C)O)[nH]4)C(=O)C3(C)O (stereo unspecified) [TOLYPORPHIN J] | Active | inactive
